For orientation: IC50 means the midpoint of a concentration-inhibition curve.

Here are results for 27 compounds from US9969749B2, “Inhibitors of IRAK4 activity” (MERCK SHARP & DOHME CORP., priority 2014, dated 2018).

A value given as a limit tells only on which side of the number the result lay.

In the assay the target is IRAK4 (Homo sapiens (Human), UniProt Q9NWZ3). The assay is described as follows: IRAK4 Kinase Assay (IMAP fluorescence polarization). To be noted: 0.5 nM GST tagged IRAK4, 100 μM ATP, 100 nM fluorescent peptide substrate RP7030, 30 minutes at 25° C. It is filed as biochemical. The protocol: The kinase activity of IRAK4 is determined by its ability to catalyze the phosphorylation of a fluorescent polypeptide substrate. The extent of phosphorylation is measured using the IMAP technology (Molecular Devices) where the phosphorylated fluorescent substrate binds to the large M(III)-based nanoparticles which reduces the rotational speed of the substrate and thus increases its fluorescent polarization (FP).
Chain of IRAK4 (Q9NWZ3 whole entry): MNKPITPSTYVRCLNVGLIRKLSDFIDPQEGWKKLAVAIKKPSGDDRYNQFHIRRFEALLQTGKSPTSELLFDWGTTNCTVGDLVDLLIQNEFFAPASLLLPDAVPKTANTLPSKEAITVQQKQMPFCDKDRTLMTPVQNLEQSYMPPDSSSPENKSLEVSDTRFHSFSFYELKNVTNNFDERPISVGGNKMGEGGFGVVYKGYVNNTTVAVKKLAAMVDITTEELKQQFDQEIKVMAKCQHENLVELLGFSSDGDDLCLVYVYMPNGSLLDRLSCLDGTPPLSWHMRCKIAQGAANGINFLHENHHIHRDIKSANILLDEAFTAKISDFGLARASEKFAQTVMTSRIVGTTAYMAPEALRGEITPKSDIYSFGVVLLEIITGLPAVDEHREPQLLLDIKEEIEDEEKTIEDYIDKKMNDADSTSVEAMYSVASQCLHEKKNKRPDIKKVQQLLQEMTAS
20 μL reaction mixture contains 10 mM TriHCl, pH 7.2, 0.5 nM GST tagged IRAK4 (SignalChem), 100 nM fluorescent peptide substrate (RP7030, Molecular Devices), 100 μM ATP, 1 mM DDT, 1 mM MgCl2, and 0.01% Tween 20. The reaction is initiated by the addition of ATP. After incubation for 30 minutes at 25° C., 60 μL of Progressive IMAP Reagent (Molecular Devices) is added to stop the reaction. Change in RP7030's FP is determined by a FP reader (Analyst HT, LJL BioSystems).
In turn, `CN(C)[C@H]1CC[C@H](Nc2ncnc3ccc(-c4cnc5ccoc5c4)cc23)CC1` [Example 1-61, trans-N′-[6-(furo[3,2-b]pyridin-6-yl)quinazolin-4-yl]-N,N-dimethylcyclohexane-1,4-diamine] registered an IC50 of 0.109 µM.
The result for `CN(C)[C@H]1CC[C@H](Nc2ncnc3ccc(-c4cc(F)cc(F)c4)cc23)CC1` [Example 1-62, trans-N′-[6-(3,5-difluorophenyl)quinazolin-4-yl]-N,N-dimethylcyclohexane-1,4-diamine] reads 0.023 µM.
The result for `CN(C)[C@H]1CC[C@H](Nc2ncnc3ccc(-c4cc(O)cc(F)c4)cc23)CC1` [Example 1-63, 3-(4-{[trans-4-(dimethylamino)cyclohexyl]amino}quinazolin-6-yl)-5-fluorophenol] reads 0.003 µM.
The result for `CN(C)[C@H]1CC[C@H](Nc2ncnc3ccc(-c4cc(O)c(F)c(F)c4)cc23)CC1` [Example 1-64, 5-(4-{[trans-4-(dimethylamino)cyclohexyl]amino}quinazolin-6-yl)-2,3-difluorophenol] reads 0.004 µM; that for `Oc1cncc(-c2ccc3ncnc(N[C@H]4CC[C@H](N5CCOCC5)CC4)c3c2)c1` [Example 1-65, 5-(4-{[trans-4-(morpholin-4-yl)cyclohexyl]amino}quinazolin-6-yl)pyridin-3-ol], less than 0.0005 µM; that for `Oc1cc(F)cc(-c2ccc3ncnc(N[C@H]4CC[C@H](N5CCOCC5)CC4)c3c2)c1` [Example 1-66, 3-fluoro-5-{4-[(trans-4-morpholin-4-ylcyclohexyl)amino]quinazolin-6-yl}phenol], 0.005 µM.
Compound `Oc1cc(-c2ccc3ncnc(N[C@H]4CC[C@H](N5CCOCC5)CC4)c3c2)ccn1` [Example 1-67, 4-{4-[(trans-4-morpholin-4-ylcyclohexyl)amino]quinazolin-6-yl}pyridin-2-ol] yielded a 50% inhibitory concentration (IC50) of 0.015 µM.
The result for `Fc1cc(F)cc(-c2ccc3ncnc(N[C@H]4CC[C@H](N5CCOCC5)CC4)c3c2)c1` [Example 1-68, 6-(3,5-difluorophenyl)-N-(trans-4-morpholin-4-ylcyclohexyl)quinazolin-4-amine] reads 0.025 µM; that for `COc1cncc(-c2ccc3ncnc(N[C@H]4CC[C@H](N5CCOCC5)CC4)c3c2)c1` [Example 1-69, 6-(5-methoxypyridin-3-yl)-N-[trans-4-(morpholin-4-yl)cyclohexyl]quinazolin-4-amine], 0.018 µM.
As to `Oc1cc(-c2ccc3ncnc(N[C@H]4CC[C@H](N5CCOCC5)CC4)c3c2)cc(F)c1F` [Example 1-70, 2,3-difluoro-5-{4-[(trans-4-morpholin-4-ylcyclohexyl)amino]quinazolin-6-yl}phenol], the IC50 stood at 0.005 µM.
The compound `COc1ncc(-c2ccc3ncnc(N[C@H]4CC[C@H](N5CCOCC5)CC4)c3c2)cc1N` [Example 1-71, 6-(5-amino-6-methoxypyridin-3-yl)-N-(trans-4-morpholin-4-ylcyclohexyl)quinazolin-4-amine] displayed an IC50 of 0.017 µM.
The result for `Oc1cccc(-c2ccc3ncnc(N[C@H]4CC[C@H](N5CCOCC5)CC4)c3c2)c1` [Example 1-72, 3-{4-[(trans-4-morpholin-4-ylcyclohexyl)amino]quinazolin-6-yl}phenol] reads 0.006 µM.
In turn, `Nc1cncc(-c2ccc3ncnc(N[C@H]4CC[C@H](N5CCOCC5)CC4)c3c2)c1` [Example 1-73, 6-(5-aminopyridin-3-yl)-N-(trans-4-morpholin-4-ylcyclohexyl)quinazolin-4-amine] showed an IC50 of 0.001 µM.
The result for `Nc1cc(-c2ccc3ncnc(N[C@H]4CC[C@H](N5CCOCC5)CC4)c3c2)ccn1` [Example 1-74, 6-(2-aminopyridin-4-yl)-N-(trans-4-morpholin-4-ylcyclohexyl)quinazolin-4-amine] reads 0.003 µM.
The result for `Cn1cc(-c2ccc3ncnc(N[C@H]4CC[C@H](N5CCOCC5)CC4)c3c2)cn1` [Example 1-75, 6-(1-methyl-1H-pyrazol-4-yl)-N-(trans-4-morpholin-4-ylcyclohexyl)quinazolin-4-amine] reads 0.039 µM; that for `Cc1c(-c2cncnc2)ccc2ncnc(N[C@H]3CC[C@H](N4CCOCC4)CC3)c12` [Example 1-76, 5-methyl-N-(trans-4-morpholin-4-ylcyclohexyl)-6-pyrimidin-5-ylquinazolin-4-amine], 0.223 µM; that for `Cc1c(-c2cnn(C)c2)ccc2ncnc(N[C@H]3CC[C@H](N4CCOCC4)CC3)c12` [Example 1-77, 5-methyl-6-(1-methyl-1H-pyrazol-4-yl)-N-(trans-4-morpholin-4-ylcyclohexyl)quinazolin-4-amine], 1.31 µM.
The result for `Cc1c(-c2ccncc2)ccc2ncnc(N[C@H]3CC[C@H](N4CCOCC4)CC3)c12` [Example 1-78, 5-methyl-N-(trans-4-morpholin-4-ylcyclohexyl)-6-pyridin-4-ylquinazolin-4-amine] reads 0.433 µM; that for `Cc1c(-c2cncc(O)c2)ccc2ncnc(N[C@H]3CC[C@H](N4CCOCC4)CC3)c12` [Example 1-79, 5-{5-methyl-4-[(trans-4-morpholin-4-ylcyclohexyl)amino]quinazolin-6-yl}pyridin-3-ol], 0.038 µM; that for `Fc1cc2ncnc(N[C@H]3CC[C@H](N4CCOCC4)CC3)c2cc1-c1cn[nH]c1` [Example 1-80, 7-fluoro-N-(trans-4-morpholin-4-ylcyclohexyl)-6-(1H-pyrazol-4-yl)quinazolin-4-amine], 0.002 µM.
In turn, `CNc1cncc(-c2ccc3ncnc(N[C@H]4CC[C@H](N5CCOCC5)CC4)c3c2)c1` [Example 1-81, 6-[5-(methylamino)pyridin-3-yl]-N-(trans-4-morpholin-4-ylcyclohexyl)quinazolin-4-amine] returned an IC50 of 0.002 µM.
The result for `c1nc(N[C@H]2CC[C@H](N3CCOCC3)CC2)c2cc(-c3cn[nH]c3)ccc2n1` [Example 1-82, N-(trans-4-morpholin-4-ylcyclohexyl)-6-(1H-pyrazol-4-yl)quinazolin-4-amine] reads 0.002 µM; that for `Nc1cccc(-c2ccc3ncnc(N[C@H]4CC[C@H](N5CCOCC5)CC4)c3c2)c1` [Example 1-83, 6-(3-aminophenyl)-N-(trans-4-morpholin-4-ylcyclohexyl)quinazolin-4-amine], 0.009 µM; that for `Oc1cncc(-c2cc3c(N[C@H]4CC[C@H](N5CCOCC5)CC4)ncnc3cc2F)c1` [Example 1-84, 5-{7-fluoro-4-[(trans-4-morpholin-4-ylcyclohexyl)amino]quinazolin-6-yl}pyridin-3-ol], 0.001 µM.
The result for `Nc1cncc(-c2cc3c(N[C@H]4CC[C@H](N5CCOCC5)CC4)ncnc3cc2F)c1` [Example 1-85, 6-(5-aminopyridin-3-yl)-7-fluoro-N-(trans-4-morpholin-4-ylcyclohexyl)quinazolin-4-amine] reads 0.01 µM.
The result for `CNc1cncc(-c2cc3c(N[C@H]4CC[C@H](N5CCOCC5)CC4)ncnc3cc2F)c1` [Example 1-86, 7-fluoro-6-[5-(methylamino)pyridin-3-yl]-N-(trans-4-morpholin-4-ylcyclohexyl)quinazolin-4-amine] reads 0.023 µM; that for `Fc1cc2ncnc(N[C@H]3CC[C@H](N4CCOCC4)CC3)c2cc1-c1cncnc1` [Example 1-87, 7-fluoro-N-(trans-4-morpholin-4-ylcyclohexyl)-6-pyrimidin-5-ylquinazolin-4-amine], 0.015 µM.
